In the experiment the target is T1, AfiL.
T1 construct: native, purified from sponge tissue (ammonium sulfate, Sepharose 4B, lactose elution); 70 kDa disulfide-linked dimer, ~30 kDa subunits; internal stretch […]
Description: isothermal titration calorimetry. Type of experiment: binding, Aplysina fistularis. The note with it: TBS (20 mM Tris-HCl pH 7.6, 150 mM NaCl), 25 °C; one-set-of-sites model.

Structures are written as SMILES.

With `OC[C@H]1O[C@@H](O[C@H]2[C@H](O)[C@@H](O)C(O)O[C@@H]2CO)[C@H](O)[C@@H](O)[C@H]1O` (stereo partly drawn) [D-lactose], the Kd is 10.2 µM.

The values are drawn from article PMC12195231, “Afil, a Lectin from Aplysina fistularis, Exhibits Antibiofilm and Synergistic Antibacterial Activity Against Resistant Bacteria” (Microorganisms, 2025).
